Each block holds one molecule with its values, some of them ahead of it.
Target: NAMPT enzyme (Homo sapiens (Human), UniProt P43490)
Experiment: Enzyme Assay and NMN Detection (NAMPT reaction, fluorescence detection of NMN)
Assay type: biochemical
Conditions: NAMPT activation, NMN formation
Outline: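 Reaction in 50 mM HEPES pH 7.5, 5 mM MgCl2, 0.1% Prionex, 0.005% Tween 20, 1 mM TCEP at room temperature, with 16 nM NAMPT, 120 uM ATP, 5 uM nicotinamide, 6.25 uM PRPP, 0.04 U/ml pyrophosphatase for 2 h. Stopped with acetophenone/KOH then formic acid; NMN quantified by fluorescence (ex380/em460) against calibration curve.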

Chain of NAMPT enzyme (P43490 whole entry, species assumed): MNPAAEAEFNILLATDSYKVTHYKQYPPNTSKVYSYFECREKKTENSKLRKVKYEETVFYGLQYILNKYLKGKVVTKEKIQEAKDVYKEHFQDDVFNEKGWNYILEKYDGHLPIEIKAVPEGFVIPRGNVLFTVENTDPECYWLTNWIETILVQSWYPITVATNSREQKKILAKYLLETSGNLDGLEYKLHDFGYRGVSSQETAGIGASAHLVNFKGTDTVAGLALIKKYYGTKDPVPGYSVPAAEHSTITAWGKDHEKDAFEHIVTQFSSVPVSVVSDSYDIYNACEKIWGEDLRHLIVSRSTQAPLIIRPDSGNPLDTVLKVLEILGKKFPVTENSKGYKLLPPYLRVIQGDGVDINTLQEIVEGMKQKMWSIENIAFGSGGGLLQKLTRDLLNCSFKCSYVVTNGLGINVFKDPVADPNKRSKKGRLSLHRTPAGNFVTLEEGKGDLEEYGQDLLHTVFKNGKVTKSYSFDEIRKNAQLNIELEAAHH

EC50 (Table B-4): 100 to 2000 nM
SMILES: N#Cc1ccc(S(=O)(=O)c2ccc(NC(=O)NCc3cn[nH]c3)cc2)cc1 [1-[4-(4-Cyano-benzenesulfonyl)-phenyl]-3-(1H-pyrazol-4-ylmethyl)-urea]

EC50 (Table B-5): 100 to 2000 nM
SMILES: N#Cc1ccc(S(=O)(=O)c2ccc(NC(=O)NCc3cnco3)cc2)cc1 [1-[4-(4-Cyano-benzenesulfonyl)-phenyl]-3-oxazol-5-ylmethyl-urea]

EC50 (Table B-6): 100 to 2000 nM
SMILES: N#Cc1ccc(S(=O)(=O)c2ccc(NC(=O)NCc3ccncc3)cc2)cc1 [1-[4-(4-Cyano-benzenesulfonyl)-phenyl]-3-pyridin-4-ylmethyl-urea]

EC50 (Table B-1): < 100 nM
SMILES: COc1ccc(S(=O)(=O)c2ccc(NC(=O)NCc3cn[nH]c3)cc2)cc1 [1-[4-(4-Methoxy-benzenesulfonyl)-phenyl]-3-(1H-pyrazol-4-ylmethyl)-urea]

EC50 (Table B-5): 100 to 2000 nM
SMILES: COc1ccc(S(=O)(=O)c2ccc(NC(=O)NCc3cnco3)cc2)cc1 [1-[4-(4-Methoxy-benzenesulfonyl)-phenyl]-3-oxazol-5-ylmethyl-urea]

EC50 (Table B-2): 100 to 2000 nM
SMILES: COc1ccc(S(=O)(=O)c2ccc(NC(=O)NCc3ccncc3)cc2)cc1 [1-[4-(4-Methoxy-benzenesulfonyl)-phenyl]-3-pyridin-4-ylmethyl-urea]

EC50 (Table B-2): 100 to 2000 nM
SMILES: CN1CCN(S(=O)(=O)c2ccc(NC(=O)NCc3ccncc3)cc2)CC1 [1-[4-(4-Methyl-piperazine-1-sulfonyl)-phenyl]-3-pyridin-4-ylmethyl-urea]

EC50 (Table B-6): 5000 to 20000 nM
SMILES: O=C(NCc1ccncc1)Nc1ccc(S(=O)(=O)c2ccccc2-c2ccc(Cl)cc2)cc1 [1-[4-(4′-Chloro-biphenyl-2-sulfonyl)-phenyl]-3-pyridin-4-ylmethyl-urea]

EC50 (Table B-4): 100 to 2000 nM
SMILES: O=C(NCc1cn[nH]c1)Nc1ccc(S(=O)(=O)c2ccccc2-c2ccc(F)cc2)cc1 [1-[4-(4′-Fluoro-biphenyl-2-sulfonyl)-phenyl]-3-(1H-pyrazol-4-ylmethyl)-urea]

EC50 (Table B-6): 100 to 2000 nM
SMILES: O=C(NCc1ccncc1)Nc1ccc(S(=O)(=O)c2ccccc2-c2ccc(F)cc2)cc1 [1-[4-(4′-Fluoro-biphenyl-2-sulfonyl)-phenyl]-3-pyridin-4-ylmethyl-urea]

EC50 (Table B-4): 5000 to 20000 nM
SMILES: COc1ccc(-c2ccccc2S(=O)(=O)c2ccc(NC(=O)NCc3cn[nH]c3)cc2)cc1 [1-[4-(4′-Methoxy-biphenyl-2-sulfonyl)-phenyl]-3-(1H-pyrazol-4-ylmethyl)-urea]

EC50 (Table B-6): 5000 to 20000 nM
SMILES: COc1ccc(-c2ccccc2S(=O)(=O)c2ccc(NC(=O)NCc3ccncc3)cc2)cc1 [1-[4-(4′-Methoxy-biphenyl-2-sulfonyl)-phenyl]-3-pyridin-4-ylmethyl-urea]

EC50 (Table B-4): 5000 to 20000 nM
SMILES: Cc1ccc(-c2ccccc2S(=O)(=O)c2ccc(NC(=O)NCc3cn[nH]c3)cc2)cc1 [1-[4-(4′-Methyl-biphenyl-2-sulfonyl)-phenyl]-3-(1H-pyrazol-4-ylmethyl)-urea]

EC50 (Table B-6): 2000 to 5000 nM
SMILES: Cc1ccc(-c2ccccc2S(=O)(=O)c2ccc(NC(=O)NCc3ccncc3)cc2)cc1 [1-[4-(4′-Methyl-biphenyl-2-sulfonyl)-phenyl]-3-pyridin-4-ylmethyl-urea]

EC50 (Table B-4): 100 to 2000 nM
SMILES: O=C(NCc1cn[nH]c1)Nc1ccc(S(=O)(=O)c2ccc(Cl)cn2)cc1 [1-[4-(5-Chloro-pyridine-2-sulfonyl)-phenyl]-3-(1H-pyrazol-4-ylmethyl)-urea]

EC50 (Table B-5): 2000 to 5000 nM
SMILES: O=C(NCc1cnco1)Nc1ccc(S(=O)(=O)c2ccc(Cl)cn2)cc1 [1-[4-(5-Chloro-pyridine-2-sulfonyl)-phenyl]-3-oxazol-5-ylmethyl-urea]

EC50 (Table B-6): 100 to 2000 nM
SMILES: O=C(NCc1ccncc1)Nc1ccc(S(=O)(=O)c2ccc(Cl)cn2)cc1 [1-[4-(5-Chloro-pyridine-2-sulfonyl)-phenyl]-3-pyridin-4-ylmethyl-urea]

EC50 (Table B-4): 100 to 2000 nM
SMILES: Cn1nc(-c2ccc(NC(=O)NCc3cn[nH]c3)cc2)c2cc(F)ccc21 [1-[4-(5-Fluoro-1-methyl-1H-indazol-3-yl)-phenyl]-3-(1H-pyrazol-4-ylmethyl)-urea]

EC50 (Table B-5): 2000 to 5000 nM
SMILES: Cn1nc(-c2ccc(NC(=O)NCc3cnco3)cc2)c2cc(F)ccc21 [1-[4-(5-Fluoro-1-methyl-1H-indazol-3-yl)-phenyl]-3-oxazol-5-ylmethyl-urea]

EC50 (Table B-6): 100 to 2000 nM
SMILES: Cn1nc(-c2ccc(NC(=O)NCc3ccncc3)cc2)c2cc(F)ccc21 [1-[4-(5-Fluoro-1-methyl-1H-indazol-3-yl)-phenyl]-3-pyridin-4-ylmethyl-urea]

EC50 (Table B-4): 100 to 2000 nM
SMILES: COc1ccc2c(c1)c(-c1ccc(NC(=O)NCc3cn[nH]c3)cc1)nn2C [1-[4-(5-Methoxy-1-methyl-1H-indazol-3-yl)-phenyl]-3-(1H-pyrazol-4-ylmethyl)-urea]

EC50 (Table B-5): > 20000 nM
SMILES: COc1ccc2c(c1)c(-c1ccc(NC(=O)NCc3cnco3)cc1)nn2C [1-[4-(5-Methoxy-1-methyl-1H-indazol-3-yl)-phenyl]-3-oxazol-5-ylmethyl-urea]

EC50 (Table B-6): 100 to 2000 nM
SMILES: COc1ccc2c(c1)c(-c1ccc(NC(=O)NCc3ccncc3)cc1)nn2C [1-[4-(5-Methoxy-1-methyl-1H-indazol-3-yl)-phenyl]-3-pyridin-4-ylmethyl-urea]

EC50 (Table B-4): 100 to 2000 nM
SMILES: Cc1ccc(S(=O)(=O)c2ccc(NC(=O)NCc3cn[nH]c3)cc2)nc1 [1-[4-(5-Methyl-pyridine-2-sulfonyl)-phenyl]-3-(1H-pyrazol-4-ylmethyl)-urea]

EC50 (Table B-5): 2000 to 5000 nM
SMILES: O=C(NCc1cnco1)Nc1ccc(S(=O)(=O)c2ccc(Cl)nc2)cc1 [1-[4-(6-Chloro-pyridine-3-sulfonyl)-phenyl]-3-oxazol-5-ylmethyl-urea]

EC50 (Table B-6): 100 to 2000 nM
SMILES: O=C(NCc1ccncc1)Nc1ccc(S(=O)(=O)c2ccc(Cl)nc2)cc1 [1-[4-(6-Chloro-pyridine-3-sulfonyl)-phenyl]-3-pyridin-4-ylmethyl-urea]

EC50 (Table B-5): 100 to 2000 nM
SMILES: O=C(NCc1cnco1)Nc1ccc(S(=O)(=O)c2ccc(O)nc2)cc1 [1-[4-(6-Hydroxy-pyridine-3-sulfonyl)-phenyl]-3-oxazol-5-ylmethyl-urea]

EC50 (Table B-6): 100 to 2000 nM
SMILES: O=C(NCc1ccncc1)Nc1ccc(S(=O)(=O)c2ccc(O)nc2)cc1 [1-[4-(6-Hydroxy-pyridine-3-sulfonyl)-phenyl]-3-pyridin-4-ylmethyl-urea]

EC50 (Table B-5): 100 to 2000 nM
SMILES: COc1ccc(S(=O)(=O)c2ccc(NC(=O)NCc3cnco3)cc2)cn1 [1-[4-(6-Methoxy-pyridine-3-sulfonyl)-phenyl]-3-oxazol-5-ylmethyl-urea]

EC50 (Table B-6): 100 to 2000 nM
SMILES: COc1ccc(S(=O)(=O)c2ccc(NC(=O)NCc3ccncc3)cc2)cn1 [1-[4-(6-Methoxy-pyridine-3-sulfonyl)-phenyl]-3-pyridin-4-ylmethyl-urea]

EC50 (Table B-4): 100 to 2000 nM
SMILES: Cc1ccc(S(=O)(=O)c2ccc(NC(=O)NCc3cn[nH]c3)cc2)cn1 [1-[4-(6-Methyl-pyridine-3-sulfonyl)-phenyl]-3-(1H-pyrazol-4-ylmethyl)-urea]

EC50 (Table B-5): 100 to 2000 nM
SMILES: Cc1ccc(S(=O)(=O)c2ccc(NC(=O)NCc3cnco3)cc2)cn1 [1-[4-(6-Methyl-pyridine-3-sulfonyl)-phenyl]-3-oxazol-5-ylmethyl-urea]

EC50 (Table B-6): 100 to 2000 nM
SMILES: Cc1ccc(S(=O)(=O)c2ccc(NC(=O)NCc3ccncc3)cc2)cn1 [1-[4-(6-Methyl-pyridine-3-sulfonyl)-phenyl]-3-pyridin-4-ylmethyl-urea]

EC50 (Table B-2): < 100 nM
SMILES: O=C(NCc1ccncc1)Nc1ccc(S(=O)(=O)N2CCc3cccc(Cl)c3C2)cc1 [1-[4-(8-Chloro-3,4-dihydro-1H-isoquinoline-2-sulfonyl)-phenyl]-3-pyridin-4-ylmethyl-urea]

EC50 (Table B-2): < 100 nM
SMILES: O=C(NCc1ccncc1)Nc1ccc(S(=O)(=O)N2CCc3cccc(F)c3C2)cc1 [1-[4-(8-Fluoro-3,4-dihydro-1H-isoquinoline-2-sulfonyl)-phenyl]-3-pyridin-4-ylmethyl-urea]

EC50 (Table B-2): < 100 nM
SMILES: Cc1cccc2c1CN(S(=O)(=O)c1ccc(NC(=O)NCc3ccncc3)cc1)CC2 [1-[4-(8-Methyl-3,4-dihydro-1H-isoquinoline-2-sulfonyl)-phenyl]-3-pyridin-4-ylmethyl-urea]

EC50 (Table B-1): 100 to 2000 nM
SMILES: O=C(NCc1cn[nH]c1)Nc1ccc(S(=O)(=O)N2CC3CCC(C2)O3)cc1 [1-[4-(8-Oxa-3-aza-bicyclo[3.2.1]octane-3-sulfonyl)-phenyl]-3-(1H-pyrazol-4-ylmethyl)-urea]

EC50 (Table B-3): > 20000 nM
SMILES: O=C(NCc1ccccn1)Nc1ccc(S(=O)(=O)N2CC3CCC(C2)O3)cc1 [1-[4-(8-Oxa-3-aza-bicyclo[3.2.1]octane-3-sulfonyl)-phenyl]-3-pyridin-2-ylmethyl-urea]

EC50 (Table B-2): 100 to 2000 nM
SMILES: O=C(NCc1ccncc1)Nc1ccc(S(=O)(=O)N2CC3CCC(C2)O3)cc1 [1-[4-(8-Oxa-3-aza-bicyclo[3.2.1]octane-3-sulfonyl)-phenyl]-3-pyridin-4-ylmethyl-urea]

EC50 (Table B-6): 5000 to 20000 nM
SMILES: O=C(NCc1ccncc1)Nc1ccc(Nc2nc3ccccc3s2)cc1 [1-[4-(Benzothiazol-2-ylamino)-phenyl]-3-pyridin-4-ylmethyl-urea]

EC50 (Table B-2): 100 to 2000 nM
SMILES: O=C(NCc1ccncc1)Nc1ccc(S(=O)(=O)N2CCOCC2)cc1 [1-[4-(Morpholine-4-sulfonyl)-phenyl]-3-pyridin-4-ylmethyl-urea]

EC50 (Table B-2): 5000 to 20000 nM
SMILES: O=C(NCc1ccncc1)Nc1ccc(S(=O)(=O)N2CCNCC2)cc1 [1-[4-(Piperazine-1-sulfonyl)-phenyl}-3-pyridin-4-ylmethyl-urea]

EC50 (Table B-2): 100 to 2000 nM
SMILES: O=C(NCc1ccncc1)Nc1ccc(S(=O)(=O)N2CCCCC2)cc1 [1-[4-(Piperidine-1-sulfonyl)-phenyl]-3-pyridin-4-ylmethyl-urea]

EC50 (Table B-4): 100 to 2000 nM
SMILES: O=C(NCc1cn[nH]c1)Nc1ccc(S(=O)(=O)c2cnccn2)cc1 [1-[4-(Pyrazine-2-sulfonyl)-phenyl]-3-(1H-pyrazol-4-ylmethyl)-urea]

EC50 (Table B-6): 100 to 2000 nM
SMILES: O=C(NCc1ccncc1)Nc1ccc(S(=O)(=O)c2cnccn2)cc1 [1-[4-(Pyrazine-2-sulfonyl)-phenyl]-3-pyridin-4-ylmethyl-urea]

EC50 (Table B-6): 100 to 2000 nM
SMILES: O=C(NCc1ccncc1)Nc1ccc(S(=O)(=O)c2cccnc2)cc1 [1-[4-(Pyridine-3-sulfonyl)-phenyl]-3-pyridin-4-ylmethyl-urea]
